Earlier results, collected in patent US11986533B2, “Macromonomers and bottle brush polymers for delivery of biological agents” (Regents of the University of Minnesota, priority 2021, dated 2024).

- log P: 2.14
SMILES: O=C1NC(=O)C(c2ccccc2)(c2ccccc2)N1 [phenytoin]
